Columns and labels:
[1] = test system: Epidermal growth factor receptor (Homo sapiens), P00533 [UNDEFINED MUTATION]
[2] = test system: Fibroblast growth factor receptor 3 (Homo sapiens), P22607 [G697C]
[3] = biological target: Homeodomain-interacting protein kinase 4 (Homo sapiens) (UniProt Q8NE63)
[4] = biological target: Serine/threonine-protein kinase 36 (Homo sapiens) (UniProt Q9NRP7)
[5] = biological target: 5-hydroxytryptamine receptor 1E (Homo sapiens) (UniProt P28566); details: Compound concentration 10.0 uM
[6] = biological target: Serine/threonine-protein kinase LATS1 (Homo sapiens) (UniProt O95835)
[7] = biological target: Mitogen-activated protein kinase kinase kinase 3 (Homo sapiens) (UniProt Q99759)
[8] = test system: Tyrosine-protein kinase ABL1 (Homo sapiens), P00519 [E255K]
Chain of Tyrosine-protein kinase ABL1 (Homo sapiens), P00519 [E255K] (P00519 whole entry E255K): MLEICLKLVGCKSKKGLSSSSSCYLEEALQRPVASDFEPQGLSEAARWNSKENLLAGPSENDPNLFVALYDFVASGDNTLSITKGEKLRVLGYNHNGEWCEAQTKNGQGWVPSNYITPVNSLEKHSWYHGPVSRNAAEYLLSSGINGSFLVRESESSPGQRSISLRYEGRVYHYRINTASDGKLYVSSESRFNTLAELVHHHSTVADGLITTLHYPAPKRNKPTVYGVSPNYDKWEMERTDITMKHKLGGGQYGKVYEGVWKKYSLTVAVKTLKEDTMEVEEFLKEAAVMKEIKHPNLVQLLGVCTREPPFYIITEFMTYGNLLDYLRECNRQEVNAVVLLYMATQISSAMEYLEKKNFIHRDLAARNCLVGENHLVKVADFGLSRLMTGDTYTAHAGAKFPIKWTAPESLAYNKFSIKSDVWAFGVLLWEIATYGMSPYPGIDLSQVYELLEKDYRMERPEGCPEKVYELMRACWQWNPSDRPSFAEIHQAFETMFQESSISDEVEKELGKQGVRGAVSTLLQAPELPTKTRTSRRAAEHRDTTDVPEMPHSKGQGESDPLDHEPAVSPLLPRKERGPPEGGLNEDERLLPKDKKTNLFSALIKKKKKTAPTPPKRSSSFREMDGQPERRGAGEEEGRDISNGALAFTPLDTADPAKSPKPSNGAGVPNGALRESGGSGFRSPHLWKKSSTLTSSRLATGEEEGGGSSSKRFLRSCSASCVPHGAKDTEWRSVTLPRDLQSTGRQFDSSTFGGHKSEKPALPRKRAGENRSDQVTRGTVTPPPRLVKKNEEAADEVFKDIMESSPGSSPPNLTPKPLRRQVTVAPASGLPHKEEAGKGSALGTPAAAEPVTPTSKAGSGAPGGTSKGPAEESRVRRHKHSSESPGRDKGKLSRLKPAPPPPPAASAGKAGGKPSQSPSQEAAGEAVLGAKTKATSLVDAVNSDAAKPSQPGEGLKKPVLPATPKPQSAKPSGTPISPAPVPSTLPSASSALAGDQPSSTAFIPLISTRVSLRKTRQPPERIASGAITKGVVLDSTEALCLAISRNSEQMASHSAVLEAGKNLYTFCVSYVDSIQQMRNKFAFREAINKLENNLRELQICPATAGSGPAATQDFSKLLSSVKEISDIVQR

[9] = biological target: Serine/threonine-protein kinase PLK1 (Homo sapiens) (UniProt P53350)
[10] = biological target: Phosphorylase b kinase regulatory subunit alpha, liver isoform (Homo sapiens) (UniProt P46019)
[11] = biological target: Mitogen-activated protein kinase 12 (Homo sapiens) (UniProt P53778)
[12] = biological target: Tyrosine-protein kinase JAK2 (Homo sapiens) (UniProt O60674)
[13] = biological target: Tyrosine-protein kinase ABL1 (Homo sapiens) (UniProt P00519)
Chain of Tyrosine-protein kinase ABL1 (Homo sapiens) (P00519 whole entry): as the sequence (P00519 whole entry E255K) above, with K255E counted along it

[14] = test system: Epidermal growth factor receptor (Homo sapiens), P00533 [G719S]
[15] = biological target: Leucine-rich repeat serine/threonine-protein kinase 2 (Homo sapiens) (UniProt Q5S007)
[16] = biological target: RAC-gamma serine/threonine-protein kinase (Homo sapiens) (UniProt Q9Y243)
[17] = biological target: Atypical kinase COQ8A, mitochondrial (Homo sapiens) (UniProt Q8NI60)
[18] = biological target: Serine/threonine-protein kinase RIO1 (Homo sapiens) (UniProt Q9BRS2)
[19] = biological target: Casein kinase I isoform epsilon (Homo sapiens) (UniProt P49674)
[20] = biological target: 5'-AMP-activated protein kinase catalytic subunit alpha-1 (Homo sapiens) (UniProt Q13131)
Chain of 5'-AMP-activated protein kinase catalytic subunit alpha-1 (Homo sapiens) (Q13131 whole entry, looked up): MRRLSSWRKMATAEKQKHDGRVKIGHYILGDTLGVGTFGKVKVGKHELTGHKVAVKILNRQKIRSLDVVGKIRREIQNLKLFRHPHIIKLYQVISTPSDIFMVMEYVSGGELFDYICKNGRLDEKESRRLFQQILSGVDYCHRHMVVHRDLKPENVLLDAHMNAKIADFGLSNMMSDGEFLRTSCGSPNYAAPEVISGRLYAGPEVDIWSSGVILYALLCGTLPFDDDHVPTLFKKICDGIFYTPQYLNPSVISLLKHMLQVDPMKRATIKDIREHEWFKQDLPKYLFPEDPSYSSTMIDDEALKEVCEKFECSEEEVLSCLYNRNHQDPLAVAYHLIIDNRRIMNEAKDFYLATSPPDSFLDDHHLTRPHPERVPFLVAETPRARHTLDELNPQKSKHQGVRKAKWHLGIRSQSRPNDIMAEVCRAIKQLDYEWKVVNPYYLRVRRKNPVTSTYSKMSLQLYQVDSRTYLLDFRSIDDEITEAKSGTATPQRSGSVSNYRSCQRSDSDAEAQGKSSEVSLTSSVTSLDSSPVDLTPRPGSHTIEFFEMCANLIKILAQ

[21] = biological target: Serine/threonine-protein kinase pim-2 (Homo sapiens) (UniProt Q9P1W9)
[22] = biological target: Serine/threonine-protein kinase RIO3 (Homo sapiens) (UniProt O14730)
[23] = biological target: Cyclin-dependent kinase 15 (Homo sapiens) (UniProt Q96Q40)
[24] = biological target: Serine/threonine-protein kinase D2 (Homo sapiens) (UniProt Q9BZL6)
[25] = biological target: Eukaryotic translation initiation factor 2-alpha kinase 1 (Homo sapiens) (UniProt Q9BQI3)
[26] = biological target: Tyrosine-protein kinase TXK (Homo sapiens) (UniProt P42681)
[27] = biological target: Proto-oncogene tyrosine-protein kinase Src (Homo sapiens) (UniProt P12931)
Chain of Proto-oncogene tyrosine-protein kinase Src (Homo sapiens) (P12931 2-536 limits assumed): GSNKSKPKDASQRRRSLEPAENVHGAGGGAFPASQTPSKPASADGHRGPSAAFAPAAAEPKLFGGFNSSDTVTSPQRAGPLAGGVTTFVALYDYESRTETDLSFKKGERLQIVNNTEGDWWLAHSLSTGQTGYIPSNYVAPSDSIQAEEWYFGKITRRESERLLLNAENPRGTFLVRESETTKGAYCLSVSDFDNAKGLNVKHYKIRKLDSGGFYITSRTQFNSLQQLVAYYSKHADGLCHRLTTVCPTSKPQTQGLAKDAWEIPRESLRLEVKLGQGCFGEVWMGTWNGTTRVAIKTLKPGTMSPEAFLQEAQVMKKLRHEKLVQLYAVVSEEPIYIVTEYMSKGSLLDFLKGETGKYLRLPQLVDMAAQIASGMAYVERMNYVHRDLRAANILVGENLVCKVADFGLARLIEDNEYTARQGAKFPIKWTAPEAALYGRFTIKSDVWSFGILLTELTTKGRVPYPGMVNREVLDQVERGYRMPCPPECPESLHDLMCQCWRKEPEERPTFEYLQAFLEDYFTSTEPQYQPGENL

[28] = biological target: Ribosomal protein S6 kinase alpha-3 (Homo sapiens) (UniProt P51812)
[29] = biological target: Citron Rho-interacting kinase (Homo sapiens) (UniProt O14578)
[30] = biological target: Mitogen-activated protein kinase 4 (Homo sapiens) (UniProt P31152)
Chain of Mitogen-activated protein kinase 4 (Homo sapiens) (P31152 whole entry): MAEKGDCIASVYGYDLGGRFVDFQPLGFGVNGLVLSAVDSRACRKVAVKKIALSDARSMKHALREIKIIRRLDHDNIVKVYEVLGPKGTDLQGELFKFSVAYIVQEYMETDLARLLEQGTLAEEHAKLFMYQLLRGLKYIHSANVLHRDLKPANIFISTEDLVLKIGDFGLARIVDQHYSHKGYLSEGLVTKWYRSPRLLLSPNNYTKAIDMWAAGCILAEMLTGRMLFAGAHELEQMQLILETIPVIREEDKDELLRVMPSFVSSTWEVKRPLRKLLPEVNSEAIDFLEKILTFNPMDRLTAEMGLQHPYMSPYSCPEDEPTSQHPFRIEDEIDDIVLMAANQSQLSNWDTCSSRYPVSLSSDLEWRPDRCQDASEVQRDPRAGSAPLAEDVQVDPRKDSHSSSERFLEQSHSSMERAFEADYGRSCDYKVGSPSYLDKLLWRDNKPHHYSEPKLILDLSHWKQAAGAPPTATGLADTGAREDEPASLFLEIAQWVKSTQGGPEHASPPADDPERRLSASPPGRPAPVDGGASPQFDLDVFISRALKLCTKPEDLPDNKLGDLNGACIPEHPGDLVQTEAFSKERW

[31] = biological target: Angiopoietin-1 receptor (Homo sapiens) (UniProt Q02763)
[32] = biological target: Receptor-interacting serine/threonine-protein kinase 2 (Homo sapiens) (UniProt O43353)
[33] = test system: Proto-oncogene tyrosine-protein kinase receptor Ret (Homo sapiens), P07949 [V804M]
[34] = biological target: Receptor-interacting serine/threonine-protein kinase 4 (Homo sapiens) (UniProt P57078)
[35] = test system: Tyrosine-protein kinase ABL1 (Homo sapiens), P00519 [F317I]
Chain of Tyrosine-protein kinase ABL1 (Homo sapiens), P00519 [F317I] (P00519 whole entry F317I): as the sequence (P00519 whole entry E255K) above, with K255E, F317I counted along it

[36] = biological target: Serine/threonine-protein kinase pim-1 (Homo sapiens) (UniProt P11309)
[37] = test system: Epidermal growth factor receptor (Homo sapiens), P00533 [L861Q]
[38] = biological target: G protein-coupled receptor kinase 3 (Homo sapiens) (UniProt P35626)
[39] = biological target: Serine/threonine-protein kinase D1 (Homo sapiens) (UniProt Q15139)
[40] = test system: Receptor-type tyrosine-protein kinase FLT3 (Homo sapiens), P36888 [K663Q]
[41] = biological target: Serine/threonine-protein kinase 32C (Homo sapiens) (UniProt Q86UX6)
[42] = biological target: Ephrin type-B receptor 4 (Homo sapiens) (UniProt P54760)
[43] = biological target: Phosphatidylinositol 5-phosphate 4-kinase type-2 beta (Homo sapiens) (UniProt P78356)
[44] = biological target: Serine/threonine-protein kinase N2 (Homo sapiens) (UniProt Q16513)
[45] = biological target: Serine/threonine-protein kinase DCLK2 (Homo sapiens) (UniProt Q8N568)
[46] = Compound concentration 1000.0 nM
[47] = Compound concentration 100.0 nM

Chain of Homeodomain-interacting protein kinase 4 (Homo sapiens) (Q8NE63 whole entry): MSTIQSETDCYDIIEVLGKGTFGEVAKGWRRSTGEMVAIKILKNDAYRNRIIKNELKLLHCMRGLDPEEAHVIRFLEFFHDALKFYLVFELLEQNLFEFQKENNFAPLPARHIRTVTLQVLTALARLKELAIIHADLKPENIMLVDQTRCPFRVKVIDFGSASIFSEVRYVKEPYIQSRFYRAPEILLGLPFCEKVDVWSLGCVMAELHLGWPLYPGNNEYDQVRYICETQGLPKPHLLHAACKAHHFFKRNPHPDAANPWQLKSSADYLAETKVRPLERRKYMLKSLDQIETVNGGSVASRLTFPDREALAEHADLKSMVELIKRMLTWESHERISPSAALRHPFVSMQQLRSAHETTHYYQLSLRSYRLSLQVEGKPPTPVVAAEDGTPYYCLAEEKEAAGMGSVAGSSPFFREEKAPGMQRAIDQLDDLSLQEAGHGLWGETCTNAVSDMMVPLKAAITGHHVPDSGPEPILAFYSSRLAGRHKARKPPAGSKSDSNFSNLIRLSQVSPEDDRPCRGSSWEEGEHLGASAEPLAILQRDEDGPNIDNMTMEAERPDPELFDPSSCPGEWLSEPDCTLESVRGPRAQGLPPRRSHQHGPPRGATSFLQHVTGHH
Chain of Serine/threonine-protein kinase 36 (Homo sapiens) (Q9NRP7 whole entry): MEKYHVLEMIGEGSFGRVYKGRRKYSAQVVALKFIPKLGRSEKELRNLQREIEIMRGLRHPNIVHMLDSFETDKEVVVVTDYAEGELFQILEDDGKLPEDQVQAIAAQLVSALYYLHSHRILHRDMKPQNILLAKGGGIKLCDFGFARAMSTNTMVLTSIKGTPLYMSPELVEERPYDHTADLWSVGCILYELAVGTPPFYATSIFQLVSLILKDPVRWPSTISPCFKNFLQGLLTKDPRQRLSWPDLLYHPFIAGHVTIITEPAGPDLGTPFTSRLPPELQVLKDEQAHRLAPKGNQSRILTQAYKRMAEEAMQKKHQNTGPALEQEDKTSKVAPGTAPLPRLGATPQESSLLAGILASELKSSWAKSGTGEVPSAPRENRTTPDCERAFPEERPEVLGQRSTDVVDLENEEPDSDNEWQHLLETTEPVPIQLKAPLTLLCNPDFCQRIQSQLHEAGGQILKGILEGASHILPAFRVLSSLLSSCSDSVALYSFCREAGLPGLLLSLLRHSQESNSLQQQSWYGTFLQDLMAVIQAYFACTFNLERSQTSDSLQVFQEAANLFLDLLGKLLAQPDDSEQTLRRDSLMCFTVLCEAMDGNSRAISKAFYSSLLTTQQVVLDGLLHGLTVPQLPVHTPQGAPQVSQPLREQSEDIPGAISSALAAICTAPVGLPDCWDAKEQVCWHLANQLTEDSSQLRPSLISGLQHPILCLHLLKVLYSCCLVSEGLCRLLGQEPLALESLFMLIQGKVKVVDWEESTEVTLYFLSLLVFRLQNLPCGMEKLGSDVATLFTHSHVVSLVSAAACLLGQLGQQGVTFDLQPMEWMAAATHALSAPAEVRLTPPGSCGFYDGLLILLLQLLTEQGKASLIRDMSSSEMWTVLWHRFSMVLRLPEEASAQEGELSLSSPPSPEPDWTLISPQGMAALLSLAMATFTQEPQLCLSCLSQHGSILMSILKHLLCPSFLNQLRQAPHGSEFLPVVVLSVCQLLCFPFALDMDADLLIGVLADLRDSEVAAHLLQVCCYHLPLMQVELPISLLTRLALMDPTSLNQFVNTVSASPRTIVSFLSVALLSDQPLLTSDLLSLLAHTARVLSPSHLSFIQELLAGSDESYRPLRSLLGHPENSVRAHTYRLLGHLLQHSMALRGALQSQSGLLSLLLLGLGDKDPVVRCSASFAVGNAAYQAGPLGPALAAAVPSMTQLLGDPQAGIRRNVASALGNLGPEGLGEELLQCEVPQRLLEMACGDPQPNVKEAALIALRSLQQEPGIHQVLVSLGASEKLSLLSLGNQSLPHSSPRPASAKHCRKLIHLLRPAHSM

CN(C)c1ncnc(-c2ccc3nc(Nc4cc(CN5CCN(C(=O)CC(F)(F)F)CC5)ccn4)[nH]c3c2)c1Cl [BAY-440]
residual activity [1, 46]: 88% | residual activity [2, 46]: 100% | residual activity [3, 46]: 100% | residual activity [4, 46]: 98% | inhibition [5]: 29.3% | residual activity [6, 46]: 95% | residual activity [7, 46]: 50% | residual activity [8, 46]: 49% | residual activity [9, 46]: 59% | residual activity [10, 46]: 100% | residual activity [11, 46]: 68% | residual activity [12, 46]: 44% | residual activity [13, 46]: 51% | residual activity [14, 46]: 79% | residual activity [15, 46]: 84% | residual activity [16, 46]: 96% | residual activity [17, 46]: 100% | residual activity [18, 46]: 100% | residual activity [19, 46]: 100% | residual activity [20, 46]: 100% | residual activity [21, 46]: 100% | residual activity [22, 46]: 92% | residual activity [23, 46]: 100% | residual activity [24, 46]: 84% | residual activity [25, 46]: 54% | residual activity [26, 46]: 95% | residual activity [27, 46]: 100% | residual activity [28, 46]: 81% | residual activity [29, 46]: 100% | residual activity [30, 46]: 100% | residual activity [31, 46]: 87% | residual activity [32, 46]: 37% | residual activity [33, 46]: 93% | residual activity [34, 46]: 100% | residual activity [35, 46]: 71% | residual activity [36, 46]: 100% | residual activity [37, 46]: 96% | residual activity [38, 46]: 78% | residual activity [39, 46]: 100% | residual activity [40, 46]: 81% | residual activity [41, 46]: 100% | residual activity [42, 46]: 100% | residual activity [43, 46]: 52% | residual activity [44, 46]: 85% | residual activity [45, 46]: 100%

C[C@H](c1ccnc(Nc2nc3ccc(-c4cc(N(C)C)ncn4)cc3[nH]2)c1)N1CCN(C(=O)CC(F)(F)F)CC1 [BAY-985]
residual activity [1, 47]: 96% | residual activity [2, 47]: 100% | residual activity [3, 47]: 100% | residual activity [4, 47]: 97% | inhibition [5]: 13.6% | residual activity [6, 47]: 100% | residual activity [7, 47]: 100% | residual activity [8, 47]: 97% | residual activity [9, 47]: 100% | residual activity [10, 47]: 81% | residual activity [11, 47]: 95% | residual activity [12, 47]: 100% | residual activity [13, 47]: 85% | residual activity [14, 47]: 91% | residual activity [15, 47]: 94% | residual activity [16, 47]: 100% | residual activity [17, 47]: 100% | residual activity [18, 47]: 100% | residual activity [19, 47]: 100% | residual activity [20, 47]: 100% | residual activity [21, 47]: 100% | residual activity [22, 47]: 97% | residual activity [23, 47]: 100% | residual activity [24, 47]: 100% | residual activity [25, 47]: 100% | residual activity [26, 47]: 96% | residual activity [27, 47]: 100% | residual activity [28, 47]: 100% | residual activity [29, 47]: 78% | residual activity [30, 47]: 100% | residual activity [31, 47]: 99% | residual activity [32, 47]: 71% | residual activity [33, 47]: 76% | residual activity [34, 47]: 100% | residual activity [35, 47]: 100% | residual activity [36, 47]: 79% | residual activity [37, 47]: 76% | residual activity [38, 47]: 100% | residual activity [39, 47]: 100% | residual activity [40, 47]: 60% | residual activity [41, 47]: 100% | residual activity [42, 47]: 100% | residual activity [43, 47]: 75% | residual activity [44, 47]: 95% | residual activity [45, 47]: 85%

— ChEMBL document CHEMBL4507318, “Data for DCP probe BAY-985” (2021)
